{"source": "patent US20130266636A1", "about": "“METHODS FOR BLOCKING CELL PROLIFERATION AND TREATING DISEASES AND CONDITIONS RESPONSIVE TO CELL GROWTH INHIBITION” (THE REGENTS OF THE UNIVERSITY OF CALIFORNIA, priority 2010, published 2013)", "key": {"Plk1": {"tested_on": "Plk1", "experiment": "Plk1 localization, confocal microscopy and CenpF immunoprecipitates", "format": "cell-based, human", "source_text": "FIG. 46. CRAF regulates Plk1 activity and localization. FIG. 46(a) Plk1 kinase activity assay performed in WT and CRAF−/− MEFs. Error bars represent s.d. (n=3); * two tailed p value=0.029 using Mann Whitney U test. FIG. 46(b) Immunoblot analysis of XPA-1 cells asynchronous or arrested in mitosis by treatment with KG5, nocodazole or paclitaxel (referred to as Ncdzl and Ptxl respectively). pPlk1 refers to phospho-T210 Plk1 and pHH3 refers to phospho-Histone H3. Data are representative of three independent experiments. FIG. 46(c) Plk1 kinase activity assay performed in HCT-116 cells treated with nocodazole or nocodazole and KG5. Error bars represent s.d. (n=2); * two tailed p value=0.002 using Mann Whitney U test. FIG. 46(d) Immunoblot analysis of CenpF immunoprecipitates from HCT-116 cells untreated or treated with KG5. Data are representative of three independent experiments. FIG. 46(e) Confocal microscopy images of XPA-1 cell at prophase (upper panel), pro-metaphase control untreated (middle panel) or treated with KG5 (lower panel). Cells were stained for phospho-T210 Plk1 (in green), a tubulin (in red) and DNA (TOPRO-3™ in blue). Thick white arrows indicate localization of pPlk1 at the mitotic spindle pole and narrow white arrows indicate localization of pPlk1 at the kinetochores. Scale bar, 10 p.m. […]"}, "XPA-1 cells": {"tested_on": "XPA-1 cells", "experiment": "Cell cycle analysis, bright field and confocal microscopy of XPA-1 cells", "format": "cell-based, human", "experimental": "FIG. 38. […] FIG. 38(a) Bright field images (scale bar, 20 μm), cell cycle analysis and confocal microscopy images (scale bar, 10 μm, laminB in red and DNA in blue) of XPA-1 cells treated for 20 hours with the allosteric RAF inhibitor KG5, the ATP-competitive inhibitor Sorafenib, the MEK inhibitor PD0325901, the control compound KG1 at 5 μM or paclitaxel at 200 nM. Cells were harvested after 20 hours and the cell cycle stage was determined by flow cytometry and confocal microscopy. White arrows indicate cells arrested at pro-metaphase. Scale bars, 10 μm. FIG. 38(b) Representative confocal microscopy images of untreated XPA-1 tumor cells undergoing mitosis (left image) and XPA-1 cell arrested with KG5 at pro-metaphase (right image). Cells were stained with α-tubulin in red and DNA in blue. Scale bar, 10 μm. FIG. 38(c) XPA-1 cells transfected with a vector control or active MEK were treated with 1 μM KG5 for 20 hours or left untreated and the G2/M population was quantified by flow cytometry. Error bars represent s.d. (n=3); * two tailed p value=0.00063 using a Mann Whitney U test. FIG. 38(d) Immunoblot analysis of XPA-1 cells untreated or treated with 1 μM KG5 for 18 hours. Data are representative of four independent experiments. […] Error bars represent s.d. (n=3); * two tailed p value=0.010 using a Mann Whitney U test. Inset, Immunoblot analysis of HCT-116 cells untreated or treated with 1 μM KG5 for 18 hours.\nFIG. 39. […] FIG. 39 graphically illustrates cell cycle analysis of XPA-1 cells treated with the allosteric RAF inhibitor KG5, the microtubule stabilizer paclitaxel, or the ATP-competitive RAF inhibitors sorafenib, L-779450, GW 5074, and ZM-336372. Cells were harvested after 6, 18, 24, 48 and 72 hours and the percentages of cells in G2/M and SubG1 were determined by flow cytometry. Data are representative of three independent experiments.\nCell cycle analysis was performed by flow cytometry following propidium iodide staining. Briefly, cells were harvested, fixed with ice cold methanol, treated for 45 min with 10 μg/ml of RNase and resuspended in PBS containing 10 μg/ml of PI, and analyzed by flow cytometry. Cell cycle analysis was performed in cells treated for 18 hours with the allosteric RAF inhibitor KG5, the ATP-competitive RAF inhibitors: sorafenib, L-779450, GW5074, and ZM-336372, the MEK inhibitor (PD0325901) at […] concentration or paclitaxel at 100 nM."}, "PKC": {"tested_on": "PKC", "conditions": "cited from earlier work"}, "Flt-3": {"target": "Flt-3 (Homo sapiens, UniProt P36888)", "sequence (P36888 27-993, species assumed)": "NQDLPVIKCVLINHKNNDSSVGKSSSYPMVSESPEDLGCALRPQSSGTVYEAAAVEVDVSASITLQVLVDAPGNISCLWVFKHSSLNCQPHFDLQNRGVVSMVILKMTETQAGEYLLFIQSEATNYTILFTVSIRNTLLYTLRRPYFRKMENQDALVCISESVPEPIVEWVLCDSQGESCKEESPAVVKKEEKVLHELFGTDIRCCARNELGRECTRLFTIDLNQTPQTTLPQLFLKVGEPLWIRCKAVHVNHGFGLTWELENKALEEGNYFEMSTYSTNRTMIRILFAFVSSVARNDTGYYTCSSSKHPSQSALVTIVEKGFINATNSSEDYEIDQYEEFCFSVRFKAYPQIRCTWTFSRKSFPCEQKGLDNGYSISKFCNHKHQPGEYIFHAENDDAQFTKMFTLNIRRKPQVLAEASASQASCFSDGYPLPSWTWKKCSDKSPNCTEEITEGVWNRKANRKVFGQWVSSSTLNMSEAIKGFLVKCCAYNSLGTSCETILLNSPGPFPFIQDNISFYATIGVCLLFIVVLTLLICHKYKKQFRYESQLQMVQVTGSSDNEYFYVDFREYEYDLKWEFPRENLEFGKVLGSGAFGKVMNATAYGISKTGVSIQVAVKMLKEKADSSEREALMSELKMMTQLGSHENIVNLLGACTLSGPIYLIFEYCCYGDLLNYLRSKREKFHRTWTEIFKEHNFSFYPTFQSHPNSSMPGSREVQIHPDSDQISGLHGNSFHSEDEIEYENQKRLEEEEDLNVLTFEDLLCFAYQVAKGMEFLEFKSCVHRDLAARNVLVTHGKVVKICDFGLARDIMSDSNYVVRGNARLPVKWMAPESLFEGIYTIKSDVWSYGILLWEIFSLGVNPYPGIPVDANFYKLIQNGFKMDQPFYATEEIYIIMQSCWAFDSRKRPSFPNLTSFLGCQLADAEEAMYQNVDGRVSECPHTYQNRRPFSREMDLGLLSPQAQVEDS", "conditions": "cited from earlier work"}}, "note": "Entries after “also recorded” stand apart in the source; their conditions may differ.", "data": [{"compound": "CSc1nc(N)cc(Oc2ccc(-c3nnc(Nc4cccc(C(F)(F)F)c4)[nH]3)cc2)n1", "note": "[KG5]", "values": [{"measurement": "Plk1 localization to the spindle pole", "setting": "Plk1", "result": "no effect on Plk1 localization to the spindle pole"}, {"measurement": "accumulation of active Plk1 at the kinetochores", "setting": "Plk1", "result": "prevented the subsequent accumulation of active Plk1 at the kinetochores"}, {"measurement": "rescue of KG5 effect on cell proliferation by ectopic active MEK (G2/M population)", "setting": "XPA-1 cells; XPA-1 cells transfected with active MEK, 1 μM KG5, 20 hours", "result": "failed to rescue"}, {"measurement": "arrest at pro-metaphase (confocal microscopy)", "setting": "XPA-1 cells; XPA-1 cells, 20 hours", "result": "arrests cells at pro-metaphase"}, {"measurement": "cell cycle arrest in G2/M (flow cytometry)", "setting": "XPA-1 cells; XPA-1 cells, 20 hours", "result": "arrested in G2/M; also recorded: arrests cells in G2/M; also recorded: induces a G2/M arrest followed by cell death"}, {"measurement": "cell appearance and mitotic function (bright field images)", "setting": "XPA-1 cells; XPA-1 cells, 20 hours, same concentration (5 μM, FIG. 38a)", "result": "look arrested in mitosis; also recorded: rounded and arrested in mitosis"}, {"measurement": "PKC", "setting": "PKC", "result": "no impact"}, {"measurement": "inhibition of Flt-3", "setting": "Flt-3", "result": "inhibits"}]}]}
